Data: patent publication US20260174867A1, “REDUCTION OF ADIPOSE TISSUE” (LEIOS THERAPEUTICS, INC., priority 2023, published 2026)

Tests used:
human subjects = settings: cited from earlier work
fat tissue = assay: Propylene glycol as co-solvent injected with polidocanol; type: in vivo
inguinal fat pad = assay: Inguinal fat pad mass after a single treatment of polidocanol; type: in vivo; settings: for reduction in inguinal fat pad mass: day 28 after a single treatment
Protocol: For example, reductions in inguinal fat pad mass of 15% were found at day 28 after a single treatment of polidocanol at doses of 0.5% and 1.25%. […] Thus, in embodiments, the polidocanol is administered approximately once per month and/or at concentrations less than about 2.0%. The treatment may employ about 0.1 to 0.3 mL (e.g. 0.2 mL) of a polidocanol at a concentration provided herein. In embodiments, the polidocanol is a concentration of from about 0.5% and 1.25%. The administration may be via injection. In embodiments, the injection is at a spacing of about 0.2 to 0.8 cm apart across the inguinal fat pad. Thus, in embodiments, the polidocanol is administered approximately once per month and/or at concentrations less than 2.0%. The treatment may employ 0.1 to 0.3 mL (e.g., 0.2 mL) of a polidocanol at a concentration provided herein. In embodiments, the polidocanol is a concentration of from 0.5% and 1.25%. The administration may be via injection. In embodiments, the injection is at a spacing of 0.2 to 0.8 cm apart across the inguinal fat pad. In embodiments, the injection is at a spacing of about 0.5 cm apart across the inguinal fat pad.

[1] = Kybella Label, spontaneous and elicited AEs, 1-week post-injection

Compound: C[C@H](CCC(=O)O)[C@H]1CC[C@H]2[C@@H]3CC[C@@H]4C[C@H](O)CC[C@]4(C)[C@H]3C[C@H](O)[C@]12C [Kybella, deoxycholic acid]
- AE Proportions Post Treatment: Anesthesia (Numbness) (human subjects; [1]): 66%
- AE Proportions Post Treatment: Bruising (human subjects; [1]): 72%
- AE Proportions Post Treatment: Edema/Swelling (human subjects; [1]): 87%
- AE Proportions Post Treatment: Erythema (human subjects; [1]): 27%
- AE Proportions Post Treatment: Induration (human subjects; [1]): 23%
- AE Proportions Post Treatment: Nerve Injury (human subjects; [1]): 4%
- AE Proportions Post Treatment: Nodule (human subjects; [1]): 13%
- AE Proportions Post Treatment: Pain (human subjects; [1]): 70%
- AE Proportions Post Treatment: Paresthesia (human subjects; [1]): 14%
- AE Proportions Post Treatment: Pruritis (human subjects; [1]): 12%
- Injection site adverse events lasting >30 days: Edema/Swelling (human subjects; Kybella Label): 20%
- Injection site adverse events lasting >30 days: Induration (human subjects; Kybella Label): 13%
- Injection site adverse events lasting >30 days: Injection Site Pain (human subjects; Kybella Label): 16%
- Injection site adverse events lasting >30 days: Numbness (human subjects; Kybella Label): 42%
- injection-site adverse events (swelling/edema, bruising, pain) per treatment session (human subjects; compared to placebo, FIGS. 9A and 9B): significantly higher percentage of subjects exhibited an adverse reaction
- of said subjects, injection related side effect which lasts for more than 30 days (human subjects; subcutaneous injection): up to 42%
- subjects exhibiting an injection related side effect (human subjects; subcutaneous injection): ≤ 87%

Compound: CC(O)CO (centres unmarked) [propylene glycol]
- irritation when injected with polidocanol (fat tissue): non-irritating
- patchy and incomplete fat tissue necrosis relative to the absence of co-solvent (fat tissue): reduced amount of patchy and incomplete fat tissue necrosis

Compound: polidocanol
- reduction in inguinal fat pad mass (inguinal fat pad; concentration 2.0%): 10%
- reduction in inguinal fat pad mass (inguinal fat pad; dose 0.5%): 15%
- reduction in inguinal fat pad mass (inguinal fat pad; dose 1.25%): 15%
- visible change of inguinal fat pad / body contour (inguinal fat pad; in vivo): externally visible reduction in inguinal fat pad fullness
